Read-outs that look alike come from different tables or passages of the source.
Assays:
HBV DNA = experiment: Anti-HBV activity in HepDE19 cells (HBV DNA dot-blot); format: cell-based, Hepatitis B virus (HBV)
Description: Cells and culture conditions: HepDE19 (Haitao Guo et al, Journal of Virology, 81, November 2007, 12472-12484; Richeng Mao et al, Journal of Virology, 85, January 2011, 1048-1057) cells were derived from HepG2 (ATCC, American Type Culture Collection) cells through transfection with pTet-off plasmid (Clontech) that expresses the Tet-responsive transcriptional activator and pTREHBVDE plasmid in which HBV pgRNA expression is controlled by a CMV early promoter with a tetracycline-responsive element. The transfected cells were selected with G418 (also known as Genticin, purchased from Invitrogen). […] These cells were maintained in Dulbecco's modified Eagle's medium (DMEM)-F12 medium (Invitrogen) supplemented with 10% fetal bovine serum, 100 U/ml penicillin, and 100 μg/ml streptomycin, 0.5 mg/ml of G418 and 1 μg/ml tetracycline.
Anti-HBV activity and cytotoxicity: HepDE19 cells were seeded into 96-well plates (3×10^4 cells/well) with tetracycline-free medium and incubated overnight at 37° C. The test or control compounds were serially half-log diluted with medium and added into the plates (the final concentration of DMSO kept at 0.5% in each well). Five days after compound treatment, cells were washed with PBS and lysed with 50 mM Tris-1 mM EDTA-0.2% CA-630 (pH 8.0) at 37° C. for 20 min. After centrifugation to remove nuclei and other debris, the supernatant was transferred into a new plate and incubated with 2M NaOH/20×SSC (3M NaCl, 0.3M Sodium citrate, pH7.0) at rt for 30 min. Then the samples were transferred to nylon membrane and neutralized with 1M Tris (pH7.4)/2M NaCl. The presence of HBV DNA was detected by dot-blot with DIG-labeled HBV specific DNA probe and quantified by dot density. The compound concentrations that inhibited HBV DNA by 50% (EC50) were determined (See Table 1).

in vitro = settings: human
Protocol: The transfected cells were selected with G418 (also known as Genticin, purchased from Invitrogen). […] These cells were maintained in Dulbecco's modified Eagle's medium (DMEM)-F12 medium (Invitrogen) supplemented with 10% fetal bovine serum, 100 U/ml penicillin, and 100 μg/ml streptomycin, 0.5 mg/ml of G418 and 1 μg/ml tetracycline.
To determine if the anti-HBV effect of compound is due to cytotoxicity, HepDE 19 cells (5×10^3 cells/well) were seeded into 96-well plates and compounds were treated as described above. […] Four hours after incubation at 37° C., the absorbance at wavelengths of 450 nm and 630 nm (OD450 and OD630) was recorded by a plate reader.

[1] = Hepatitis B virus, 120 h, HepDE19 cells, five days after compound treatment, concentration that inhibited HBV DNA by 50%, read-out: HepDe19 EC50
[2] = Hepatitis B virus, HepDE19, 120 h, read-out: HepDe19 EC50

SMILES	EC50 (HBV DNA; [1]) [µM]	CC50 at 5 days (in vitro) [µM]	EC50 (HBV DNA; [2]) [µM]	EC50 (HBV DNA; read-out: EC50 value, HBV DNA reduction in HepDE19 cell based assays) [µM]
COC(=O)C1=C(CN2CC(F)(F)C[C@H]2C(=O)NS(C)(=O)=O)NC(c2nccs2)=N[C@@]1(C)c1ccc(F)cc1 [Example 51, (S)-6-((S)-4,4-difluoro-2-methanesulfonylaminocarbonyl-pyrrolidin-1-ylmethyl)-4-(4-fluoro-phenyl)-4-methyl-2-thiazol-2-yl-1,4-dihydro-pyrimidine-5-carboxylic acid methyl ester]	18.2	90		
COC(=O)C1=C(CN2CCOC[C@H]2C(=O)O)NC(c2nccn2C)=N[C@@]1(C)c1ccc(F)cc1 [Example 30, (S)-4-[(S)-6-(4-fluoro-phenyl)-5-methoxycarbonyl-6-methyl-2-(1-methyl-1H-imidazol-2-yl)-3,6-dihydro-pyrimidin-4-ylmethyl]-morpholine-3-carboxylic acid]	6.77	≥ 100		
CC1(c2ccc(F)c(F)c2)N=C(c2nccs2)NC(CN2CCOC[C@H]2C(=O)O)=C1C#N (stereo partly drawn) [Example 22, (S)-4-[5-Cyano-6-(3,4-difluoro-phenyl)-6-methyl-2-thiazol-2-yl-3,6-dihydro-pyrimidin-4-ylmethyl]-morpholine-3-carboxylic acid]	20.4	> 100		
COC(=O)C1=C(CN2CC(F)(F)C[C@H]2C(=O)O)NC(c2nc(C)cs2)=N[C@]1(C)c1ccc(F)cc1 [Example 31, (R)-6-((S)-2-carboxy-4,4-difluoro-pyrrolidin-1-ylmethyl)-4-(4-fluoro-phenyl)-4-methyl-2-(4-methyl-thiazol-2-yl)-1,4-dihydro-pyrimidine-5-carboxylic acid methyl ester]	1.67	≥ 100		
COC(=O)C1=C(CN2C[C@H](F)C[C@H]2C(=O)O)NC(c2nccs2)=N[C@@]1(C)c1ccc(F)cc1 [Example 34, (S)-6-((2S,4R)-2-Carboxy-4-fluoro-pyrrolidin-1-ylmethyl)-4-(4-fluoro-phenyl)-4-methyl-2-thiazol-2-yl-1,4-dihydro-pyrimidine-5-carboxylic acid methyl ester]	2.84	≥ 100		
COC(=O)C1=C(CN2CC(F)(F)C[C@H]2C(=O)O)NC(c2ccc(F)s2)=N[C@@]1(C)c1ccc(F)cc1 [Example 38, (S)-6-((S)-2-carboxy-4,4-difluoro-pyrrolidin-1-ylmethyl)-4-(4-fluoro-phenyl)-2-(5-fluoro-thiophen-2-yl)-4-methyl-1,4-dihydro-pyrimidine-5-carboxylic acid methyl ester]	2.03			
COC(=O)C1=C(CN2CC(F)(F)C[C@@H]2C(=O)O)NC(c2nccs2)=NC1(C)c1ccc(F)cc1 (stereo partly drawn) [Example 12, 6-(2-(R)-Carboxy-4,4-difluoro-pyrrolidin-1-ylmethyl)-4-(4-fluoro-phenyl)-4-methyl-2-thiazol-2-yl-1,4-dihydro-pyrimidine-5-carboxylic acid methyl ester]			6.59	
COC(=O)C1=C(CN2CC(F)(F)C[C@H]2C(=O)O)NC(c2nccs2)=N[C@@]1(C)c1ccc(F)cc1 [Example 13, (S)-6-((S)-2-Carboxy-4,4-difluoro-pyrrolidin-1-ylmethyl)-4-(4-fluoro-phenyl)-4-methyl-2-thiazol-2-yl-1,4-dihydro-pyrimidine-5-carboxylic acid methyl ester]			0.15	
COC(=O)C1=C(CN2CC(F)(F)C[C@H]2C(=O)OC)NC(c2nccs2)=N[C@@]1(C)c1ccc(F)cc1 [Example 45, (S)-6-((S)-4,4-difluoro-2-methoxycarbonyl-pyrrolidin-1-ylmethyl)-4-(4-fluoro-phenyl)-4-methyl-2-thiazol-2-yl-1,4-dihydro-pyrimidine-5-carboxylic acid methyl ester]		≥ 100		
COC(=O)c1c(C)nc(-c2ncc(F)cc2F)nc1-c1ccc(F)cc1Cl [XLVI]				> 100
COC(=O)C1=C(CN2CC(F)(F)C[C@H]2C(=O)O)NC(c2nccs2)=NC1(C)c1ccc(F)cc1 (stereo partly drawn) [Example 11, 6-(2-(S)-Carboxy-4,4-difluoro-pyrrolidin-1-ylmethyl)-4-(4-fluoro-phenyl)-4-methyl-2-thiazol-2-yl-1,4-dihydro-pyrimidine-5-carboxylic acid methyl ester]			0.46	

From patent US9856247B2, “4-methyl-dihydropyrimidines for the treatment and prophylaxis of Hepatitis B virus infection” (Hoffmann-La Roche Inc., priority 2012, dated 2018)
